# Source: ChEMBL document CHEMBL1201862, “PubChem BioAssay data set” (2004)
# Activity calls are given as the source filed them. Rule as the data show it, for most assays here: actives have a measured EC50 and inactives only a lower limit.
# Biological target: Luciferin 4-monooxygenase (Photinus pyralis, UniProt P08659)
# Assay: inhibition of purified Photinus pyralis luciferase – biochemical, luminescence, dose response (AID 1891)
# Conditions: not given
# Sequence of Luciferin 4-monooxygenase (P08659 whole entry): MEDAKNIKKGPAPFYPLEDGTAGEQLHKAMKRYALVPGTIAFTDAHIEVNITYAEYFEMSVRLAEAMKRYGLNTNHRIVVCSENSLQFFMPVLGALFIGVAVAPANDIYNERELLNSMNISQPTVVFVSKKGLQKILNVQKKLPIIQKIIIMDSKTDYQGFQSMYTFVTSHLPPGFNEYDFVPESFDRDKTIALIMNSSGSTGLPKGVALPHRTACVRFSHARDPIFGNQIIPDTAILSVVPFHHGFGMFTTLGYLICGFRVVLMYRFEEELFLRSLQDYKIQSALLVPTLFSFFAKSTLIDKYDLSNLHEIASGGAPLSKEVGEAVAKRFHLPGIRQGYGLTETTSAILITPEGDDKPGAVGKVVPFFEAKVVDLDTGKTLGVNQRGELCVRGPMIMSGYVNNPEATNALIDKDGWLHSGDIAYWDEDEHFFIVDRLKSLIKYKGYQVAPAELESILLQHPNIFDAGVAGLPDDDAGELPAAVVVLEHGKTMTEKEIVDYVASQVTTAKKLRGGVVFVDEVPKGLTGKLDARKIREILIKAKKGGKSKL
row,Compound,EC50
1,CCCc1nc2oc3c(=O)nc[nH]c3c2c2c1CCCC2,> 112 µM (not active)
2,CCOC(=O)C1=C(CNCc2ccccc2Cl)NC(=O)NC1c1cccc([N+](=O)[O-])c1 (configuration not stated),> 112 µM (not active)
3,CC(NC(=O)CCc1nc2cc(S(=O)(=O)N3CCOCC3)ccc2n1C)c1ccc(S(N)(=O)=O)cc1 (configuration not stated),> 112 µM (not active)
4,CCc1nc2scc(-c3cccs3)c2c(=O)o1,> 112 µM (not active)
5,C/C(=N\NC(=O)c1ccc2c(c1)OCCO2)c1ccccc1,12.8 µM (active)

# Test system: Streptococcus
# Assay: GAS UMAA2166 growth inhibition – luminescence, BacTiterGlo, counter-screen for streptokinase expression inhibitor project, dose response (AID 1915);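 also: potency for reduction of bacterial viability or growth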
# Assay type: functional, organism-based
# Conditions: not given
row,Compound,EC50
1,Cc1ccccc1NS(=O)(=O)c1ccc(C)c(C(=O)N2CCOCC2)c1,> 150 µM (not active)

# Biological target: T1, Corticotropin-releasing factor receptor 2/Corticotropin-releasing factor-binding protein (Homo sapiens, UniProt P24387+Q13324)
# T1 sequence (Q13324 whole entry): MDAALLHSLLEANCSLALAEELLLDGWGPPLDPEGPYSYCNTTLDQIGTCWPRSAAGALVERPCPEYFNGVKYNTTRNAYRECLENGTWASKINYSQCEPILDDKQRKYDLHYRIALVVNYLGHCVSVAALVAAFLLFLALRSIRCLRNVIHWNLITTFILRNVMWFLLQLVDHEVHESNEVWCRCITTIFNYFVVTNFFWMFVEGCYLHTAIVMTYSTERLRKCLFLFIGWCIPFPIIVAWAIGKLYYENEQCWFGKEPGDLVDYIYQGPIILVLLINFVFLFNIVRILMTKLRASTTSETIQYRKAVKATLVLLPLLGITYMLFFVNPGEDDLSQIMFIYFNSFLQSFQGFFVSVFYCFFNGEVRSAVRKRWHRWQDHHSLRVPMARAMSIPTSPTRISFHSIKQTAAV
# T1 sequence (P24387 whole entry): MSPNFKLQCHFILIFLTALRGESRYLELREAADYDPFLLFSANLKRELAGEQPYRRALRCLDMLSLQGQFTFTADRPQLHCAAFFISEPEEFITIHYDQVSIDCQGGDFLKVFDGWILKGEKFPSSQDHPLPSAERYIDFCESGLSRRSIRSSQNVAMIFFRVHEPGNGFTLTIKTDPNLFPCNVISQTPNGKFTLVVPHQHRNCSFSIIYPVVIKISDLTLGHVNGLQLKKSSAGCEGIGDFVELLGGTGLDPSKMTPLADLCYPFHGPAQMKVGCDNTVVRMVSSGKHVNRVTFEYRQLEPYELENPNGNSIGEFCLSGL
# Assay: Dose Response confirmation of uHTS hits for small molecule antagonists of the CRF-binding protein and CRF-R2 receptor complex.
# Assay type: functional
# Conditions: read-out: IC50_Mean
row,Compound,IC50
1,Cc1ccc2c(c1)Oc1ccccc1N=C2,> 47.1 µM (inactive)
2,Cc1cc(C)n2nc(/C(C#N)=C/c3ccccc3)c(C#N)c2n1,> 47.1 µM (inactive)
3,COc1ccc(N2CCN(C(=O)c3csc4ccccc34)CC2)cc1,> 47.1 µM (inactive)
4,Cc1nc2c(s1)sc1ccccc12,> 47.1 µM (inactive)
5,Cc1ccccc1NS(=O)(=O)c1ccc(C)c(C(=O)N2CCOCC2)c1,> 47.1 µM (inactive)
6,CCOc1ccc(/C=N/NC(=O)CN2CCCCCCC2)cc1,> 47.1 µM (inactive)
7,Cc1ccc(N(C(=O)Cn2nnc(-c3ccccc3)n2)C(C(=O)NC2CCCCC2)c2ccccn2)cc1C (configuration not stated),> 47.1 µM (inactive)
8,C=CCNC(=S)N/N=C/c1ccc(OCc2ccccc2)cc1,> 47.1 µM (inactive)
9,CCOc1ccc(N(CC(=O)NC2CCC(C)CC2)S(=O)(=O)c2c(C)noc2C)cc1 (configuration not stated),> 47.1 µM (inactive)

# Biological target: T1, Corticotropin-releasing factor receptor 2/Corticotropin-releasing factor-binding protein
# Assay: activators of CRF receptor 2 with binding protein – uHTS hits, confirmation (AID 602473)
# Assay type: functional
# Conditions: read-out: EC50_Mean
row,Compound,EC50
1,Cc1ccc2c(c1)Oc1ccccc1N=C2,> 53 µM (inactive)
2,Cc1cc(C)n2nc(/C(C#N)=C/c3ccccc3)c(C#N)c2n1,> 53 µM (inactive)
3,COc1ccc(N2CCN(C(=O)c3csc4ccccc34)CC2)cc1,> 53 µM (inactive)
4,Cc1nc2c(s1)sc1ccccc12,> 53 µM (inactive)
5,Cc1ccccc1NS(=O)(=O)c1ccc(C)c(C(=O)N2CCOCC2)c1,> 53 µM (inactive)
6,CCOc1ccc(/C=N/NC(=O)CN2CCCCCCC2)cc1,> 53 µM (inactive)
7,Cc1ccc(N(C(=O)Cn2nnc(-c3ccccc3)n2)C(C(=O)NC2CCCCC2)c2ccccn2)cc1C (configuration not stated),> 53 µM (inactive)
8,C=CCNC(=S)N/N=C/c1ccc(OCc2ccccc2)cc1,> 53 µM (inactive)
9,CCOc1ccc(N(CC(=O)NC2CCC(C)CC2)S(=O)(=O)c2c(C)noc2C)cc1 (configuration not stated),> 53 µM (inactive)

# Test system: Streptococcus sp. 'group A'
# Assay: Streptococcus pyogenes SK(-)GAS viability under kanamycin – luminescence, BacTiterGlo, confirmation, counter-screen for streptokinase expression inhibitor project, dose response (AID 1900)
# Assay type: functional, organism-based
# Conditions: not given
row,Compound,EC50
1,Cc1ccccc1NS(=O)(=O)c1ccc(C)c(C(=O)N2CCOCC2)c1,> 150 µM (not active)

# Test system: not listed separately
# Assay: cells
# Assay type: functional, cell-based
# Conditions: not given
row,Compound,EC50
1,COC(=O)C(NC(=O)c1c(C)nn(C)c1Cl)c1ccccc1 (configuration not stated),> 350 µM (not active)
2,CCOc1ccc(NC(=O)CSc2nnc(Cn3cnc4ccccc43)n2C)cc1,> 350 µM (not active)
3,CCCCCCC1CCC(c2nc(-c3ccncc3)no2)CC1 (configuration not stated),> 350 µM (not active)
4,Cn1nnc(NC(=O)c2cccc([N+](=O)[O-])c2)n1,> 350 µM (not active)
5,O=C(Cn1c(SCC(=O)N2CCCc3ccccc32)nc2ccccc21)N1CCCC1,> 350 µM (not active)
6,CC(C)COc1ccc(C(=O)Nc2ccc([N+](=O)[O-])cc2)cc1,> 350 µM (not active)

# Biological target: T2, Streptokinase A (Streptococcus pyogenes serotype M1, UniProt P10520)
# T2 sequence (P10520 whole entry): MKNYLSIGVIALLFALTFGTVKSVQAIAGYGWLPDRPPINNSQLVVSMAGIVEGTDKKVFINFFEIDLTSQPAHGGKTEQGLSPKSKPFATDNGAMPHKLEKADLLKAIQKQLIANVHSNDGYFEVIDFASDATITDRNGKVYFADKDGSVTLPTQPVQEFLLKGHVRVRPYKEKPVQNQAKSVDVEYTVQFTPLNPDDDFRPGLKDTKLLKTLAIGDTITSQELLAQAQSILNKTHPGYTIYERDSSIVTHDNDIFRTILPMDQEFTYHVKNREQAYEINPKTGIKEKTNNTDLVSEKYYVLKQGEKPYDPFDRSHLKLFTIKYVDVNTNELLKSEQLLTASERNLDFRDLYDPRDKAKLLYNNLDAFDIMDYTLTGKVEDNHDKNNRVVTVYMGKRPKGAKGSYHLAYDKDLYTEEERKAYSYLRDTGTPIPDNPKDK
# Assay: viability-normalized secreted streptokinase activity reduction – plasminogen activation absorbance, OD405, dose response (AID 1914);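 also: secreted streptokinase activity via plasminogen activation per viability signal from cell pellet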
# Assay type: functional, Streptococcus pyogenes M1 GAS
# Conditions: not given
row,Compound,EC50
1,Cc1ccccc1NS(=O)(=O)c1ccc(C)c(C(=O)N2CCOCC2)c1,> 150 µM (not active)

# Test system: not listed separately
# Assay: alpha-synuclein stem-loop luciferase translation blockers – H4 neuroglioma cells, luminescence, confirmation (AID 1988)
# Assay type: functional, cell-based
# Conditions: not given
row,Compound,EC50
1,Cc1nnc(N2CCC(C(=O)NC3CCC(C)CC3)CC2)c2nn(-c3ccc(Cl)cc3)c(C)c12 (configuration not stated),> 120 µM (not active)
2,CCOC(=O)c1c(C)[nH]c(C)c1S(=O)(=O)N1CCN(c2ccc([N+](=O)[O-])cc2)CC1,> 120 µM (not active)
3,CCCC1(C(=O)OC)NC(c2ccco2)C2C(=O)N(C)C(=O)C21 (configuration not stated),> 120 µM (not active)
4,O=[N+]([O-])c1ccc(N2CCN(S(=O)(=O)c3ccccc3)CC2)cc1NCC1CCCO1 (configuration not stated),19.2 µM (active)
5,Cc1ccc(S(=O)(=O)Nc2cc(-c3nn(C)c(=O)c4ccccc34)ccc2N2CCOCC2)cc1,10.8 µM (active)

# Test system: not listed separately
# Assay: cells
# Assay type: functional, cell-based
# Conditions: not given
# Remark: another data set of the same source
row,Compound,EC50
1,COC(=O)C(NC(=O)c1c(C)nn(C)c1Cl)c1ccccc1 (configuration not stated),> 350 µM (not active)
2,CCOc1ccc(NC(=O)CSc2nnc(Cn3cnc4ccccc43)n2C)cc1,> 350 µM (not active)
3,CCCCCCC1CCC(c2nc(-c3ccncc3)no2)CC1 (configuration not stated),> 350 µM (not active)
4,Cn1nnc(NC(=O)c2cccc([N+](=O)[O-])c2)n1,> 350 µM (not active)
5,O=C(Cn1c(SCC(=O)N2CCCc3ccccc32)nc2ccccc21)N1CCCC1,> 350 µM (not active)
6,CC(C)COc1ccc(C(=O)Nc2ccc([N+](=O)[O-])cc2)cc1,> 350 µM (not active)

# Test system: not listed separately
# Assay: luciferase reporter signal suppression in cells – H4 neuroglioma cells, luminescence, dose response (AID 1990)
# Assay type: functional, cell-based
# Conditions: not given
row,Compound,EC50
1,Cc1nnc(N2CCC(C(=O)NC3CCC(C)CC3)CC2)c2nn(-c3ccc(Cl)cc3)c(C)c12 (configuration not stated),14.7 µM (active)
2,CCOC(=O)c1c(C)[nH]c(C)c1S(=O)(=O)N1CCN(c2ccc([N+](=O)[O-])cc2)CC1,23 µM (active)
3,CCCC1(C(=O)OC)NC(c2ccco2)C2C(=O)N(C)C(=O)C21 (configuration not stated),> 120 µM (not active)
4,O=[N+]([O-])c1ccc(N2CCN(S(=O)(=O)c3ccccc3)CC2)cc1NCC1CCCO1 (configuration not stated),18.3 µM (active)
5,Cc1ccc(S(=O)(=O)Nc2cc(-c3nn(C)c(=O)c4ccccc34)ccc2N2CCOCC2)cc1,> 60 µM (not active)

# Test system: BJ
# Assay: cells
# Assay type: functional, cell-based
# Conditions: Homo sapiens
row,Compound,EC50
1,CCOC(=O)C(CC)(CC)C(=O)/C=C/c1cccc(Br)c1,16.6 µM (active)
2,CC(=O)n1c(Cl)c(NC(=O)CCl)c2ccccc21,> 150 µM (not active)

# Test system: not listed separately
# Assay: DRD fibroblast viability loss – cell-based, non-viral oncogenic, luminescence, dose response (AID 1934)
# Assay type: functional
# Conditions: Homo sapiens
row,Compound,EC50
1,CCOC(=O)C(CC)(CC)C(=O)/C=C/c1cccc(Br)c1,9.57 µM (active)
2,CC(=O)n1c(Cl)c(NC(=O)CCl)c2ccccc21,29.7 µM (active)

# Test system: BJ
# Assay: BJ-TERT-LT-ST fibroblast viability loss – cell-based, RAS-independent, luminescence, dose response (AID 1935);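 also: BJ fibroblasts immortalized with TERT plus LT and ST oncogenes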
# Assay type: functional
# Conditions: Homo sapiens
row,Compound,EC50
1,CCOC(=O)C(CC)(CC)C(=O)/C=C/c1cccc(Br)c1,10.7 µM (inconclusive)
2,CC(=O)n1c(Cl)c(NC(=O)CCl)c2ccccc21,> 150 µM (not active)

# Test system: not listed separately
# Assay: Luminescence Cell-Based Dose Confirmation HTS to Identify Inhibitors of Platelet Dense Granule Release. [Related pubchem assays: 1663 (Primary HTS), 1678 (Summary of Project)]
# Assay type: functional
# Conditions: not given
row,Compound,EC50
1,CCOC(=O)C1=C(CNCc2ccccc2Cl)NC(=O)NC1c1cccc([N+](=O)[O-])c1 (configuration not stated),> 112 µM (not active)
2,CC(NC(=O)CCc1nc2cc(S(=O)(=O)N3CCOCC3)ccc2n1C)c1ccc(S(N)(=O)=O)cc1 (configuration not stated),41.7 µM (active)
3,CCc1nc2scc(-c3cccs3)c2c(=O)o1,> 112 µM (not active)
4,C/C(=N\NC(=O)c1ccc2c(c1)OCCO2)c1ccccc1,2.98 µM (active)
5,CCCc1nc2oc3c(O)ncnc3c2c2c1CCCC2,> 112 µM (not active)

# Test system: not listed separately
# Assay: Luminescence Cell-Based Dose Response HTS to Identify Inhibitors of 5'UTR Stem-Loop Driven Prion Protein mRNA Translation in H4 Neuroglioblastoma Cells. [Related pubchem assays: 1827 (Project Summary), 1813 (Primary HTS)]
# Assay type: functional
# Conditions: not given
row,Compound,EC50
1,Cc1nnc(N2CCC(C(=O)NC3CCC(C)CC3)CC2)c2nn(-c3ccc(Cl)cc3)c(C)c12 (configuration not stated),> 120 µM (not active)
2,CCOC(=O)c1c(C)[nH]c(C)c1S(=O)(=O)N1CCN(c2ccc([N+](=O)[O-])cc2)CC1,> 120 µM (not active)
3,CCCC1(C(=O)OC)NC(c2ccco2)C2C(=O)N(C)C(=O)C21 (configuration not stated),> 120 µM (not active)
4,O=[N+]([O-])c1ccc(N2CCN(S(=O)(=O)c3ccccc3)CC2)cc1NCC1CCCO1 (configuration not stated),40.6 µM (active)
5,Cc1ccc(S(=O)(=O)Nc2cc(-c3nn(C)c(=O)c4ccccc34)ccc2N2CCOCC2)cc1,> 120 µM (not active)

# Biological target: Cytochrome P450 2C9 (Homo sapiens, UniProt P11712)
# Sequence (P11712 whole entry): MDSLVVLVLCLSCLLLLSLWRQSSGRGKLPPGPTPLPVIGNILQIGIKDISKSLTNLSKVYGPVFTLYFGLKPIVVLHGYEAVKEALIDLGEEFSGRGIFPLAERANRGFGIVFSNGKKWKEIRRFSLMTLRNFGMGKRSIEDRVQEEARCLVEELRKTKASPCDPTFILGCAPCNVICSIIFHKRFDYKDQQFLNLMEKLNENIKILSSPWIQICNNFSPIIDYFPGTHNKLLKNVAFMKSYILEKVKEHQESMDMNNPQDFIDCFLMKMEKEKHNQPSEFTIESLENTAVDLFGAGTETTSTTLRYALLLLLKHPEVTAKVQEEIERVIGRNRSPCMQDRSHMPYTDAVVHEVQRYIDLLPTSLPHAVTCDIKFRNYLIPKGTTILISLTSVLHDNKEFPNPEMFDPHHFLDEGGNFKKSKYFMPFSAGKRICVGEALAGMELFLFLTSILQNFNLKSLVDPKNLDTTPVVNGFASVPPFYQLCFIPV
# Assay: not given
# Conditions: not given
row,Compound,AC50
1,C=CCNC(=S)N/N=C/c1ccc(OCc2ccccc2)cc1,15.8 µM (inconclusive)

# Test system: BJ
# Assay: BJ-TERT fibroblast viability loss – cell-based, RAS-independent, luminescence, dose response (AID 1933)
# Assay type: functional
# Conditions: Homo sapiens
row,Compound,EC50
1,CCOC(=O)C(CC)(CC)C(=O)/C=C/c1cccc(Br)c1,10 µM (active)
2,CC(=O)n1c(Cl)c(NC(=O)CCl)c2ccccc21,25.1 µM (active)
